Experimental data taken from ChEMBL document CHEMBL4819119, “Design and evaluation of 1,2,3-dithiazoles and fused 1,2,4-dithiazines as anti-cancer agents” (Bioorg Med Chem Lett, 2021).

Test system: DU-145
Test: Cytotoxicity against human DU-145 cells
Assay type: functional, cell-based

CC(=O)O[C@@]12CO[C@@H]1C[C@H](O)[C@@]1(C)C(=O)[C@H](O)C3=C(C)[C@@H](OC(=O)[C@H](O)[C@@H](NC(=O)OC(C)(C)C)c4ccccc4)C[C@@](O)([C@@H](OC(=O)c4ccccc4)[C@H]21)C3(C)C [DOCETAXEL ANHYDROUS]
IC50: 5 nM
